The values below come from a melting point compilation (Tetko et al.; mined from patent text by program, amines drawn as free bases though some values may be those of a salt).

Usually melting point stands for the temperature, or range, at which the solid turns liquid.

In turn, `O=C(OCc1ccccc1)N1CCc2c(sc3nc(CN4C(=O)CCC4=O)c(Cl)c(-c4ccc(OCC(F)(F)F)cc4)c23)C1` returned a melting point of 190 to 191 °C.
Compound `Cc1[nH]c(=O)c(C#N)c2c1CC(c1ccccn1)CC2` (stereo not given) yielded a melting point greater than 300 °C.
For `Cc1cc(C)c(Nc2nc(C)ncc2S(=O)(=O)c2ccc(-c3ccccn3)cc2)c(C)c1` the value was 201 to 203 °C; for `O=C(NCC1CCCCC1)[C@@H]1CCCN(c2cccc3c2C(=O)N(Cc2ccncc2)C3=O)C1`, 172 to 173 °C.
In the case of `CC(C)[C@@H](C(N)=O)C(=O)O` it was 174 °C.
For `CC(C)(C)c1cc(-c2nn(CC(N)=O)c3ncccc23)cc(C(C)(C)C)c1O` the value was 162 to 164 °C; for `COC(=O)c1cc2cc([N+](=O)[O-])cc(O)c2o1`, 252 to 253 °C.
With `CNC1CN(C(=O)Nc2ccc(C(F)(F)F)cc2)N=C1c1ccc(Cl)cc1` (stereo not given), the melting point lay within 148 to 149 °C.
For `Nc1nc(-n2cc(C(=O)O)c(=O)c3cc(F)c(N4CC(O)C4)c(Br)c32)c(F)cc1F` the value was 215 to 220 °C; for `N#CC(Cc1ccccc1)=NNc1ccc(C(O)(C(F)(F)F)C(F)(F)F)cc1`, 164 to 167 °C; for `O=C(O)[C@@H](O)CNC(=O)C(F)(F)F`, 142 to 143 °C.
As for `COc1cc(C(=O)c2nc(N)c3ccccn23)ccc1[N+](=O)[O-]`, the melting point is 214 °C.
For `CN(C)C=C1C(=O)N(c2cccc(O)c2)c2ccccc21` the value was 200 to 203 °C; for `CCOCc1cc2ccc(OC)cc2oc1=O`, 64 to 66 °C; for `CCCCCCC(N)(c1ccccc1)C(C)(C)O` (stereo not given), 64.5 to 65.5 °C.
As for `COc1cc(OC)c2c(c1)S(=O)(=O)NC2=O`, the melting point was found to be 258 °C.
For `CCCCCCC(=O)CC(=O)c1ccccc1` the value was 14 °C; for `O=C(Nc1ccccc1N1CCc2ccccc21)C1CCC1`, 81 to 83.5 °C; for `CC1CC(N)=NN1c1ccc(Cl)cc1Cl` (stereo not given), 109 to 111 °C.
In turn, `O=S(=O)(Cl)c1ccc(-c2ccc(F)cc2)s1` came in with a melting point of 82 to 85 °C.
For `CC(C)CNC(=O)C(C)NC(=O)C(C)NC(=O)C(C)NC(=O)CCC(=O)O` (stereo not given) the value was 283 to 286 °C.
For `C=S1c2ccccc2N(CCN2CCOCC2)C(=O)C1c1ccc(Cl)cc1` (stereo not given) the value was 169 to 173 °C; for `N#CCc1ccc(F)cc1I`, 52 to 53 °C.
For `COc1cc(-c2cc3ccccc3[nH]2)ccc1O` the value was 165 °C.
In turn, `CCC1CC2C3CC=C4CC(OC(C)=O)CCC4(C)C3CCC2(C)C1C(C)=O` (stereo not given) displayed a melting point of 115 °C.
For `CC(C)(C)C(=O)OCn1nc2ccc(OCCCN3CCC(OC(c4ccccc4)c4ccccc4)CC3)nn2c1=O`, the melting point was 108 to 110 °C.
Consider `CS(=O)(=O)c1ccc(CC(N)C(O)C(=O)C2(C(=O)NC(CCCNC(=N)N)C(=O)O)CCCC2N)cc1` (stereo not given), for which the melting point fell in the range of 142 to 145 °C.
In turn, `CCOC(=O)c1nc(-c2ccc(Cl)cc2F)nc(N)c1Cl` displayed a melting point of 131 to 132 °C.
In the case of `CCC1COc2c(Cc3ccc(C(C)C)cc3)c(C)c(NC(=O)CC(C)(C)C)c(C)c21` (stereo not given) it was 156 to 157 °C; in that of `Cc1cc(C)cc(-c2cn(C(C)C)c3ccccc23)c1`, 60 to 62 °C.
`COc1ccc(OCc2ccccc2)c2[nH]c(C)c(C)c12`: the melting point stood at 76 °C.
In the case of `COCCc1nc2c(N)nc3cc(OCCn4cccc4)ccc3c2n1CC(C)(C)O` it was 168 to 169 °C; in that of `CC(=O)Nc1ccc(CCNc2nc(C)nc3sc(C)cc23)cc1`, 248 °C; in that of `O=C(CCl)Nc1ccccn1`, 114 to 117 °C.
In the case of `Cc1cc(Nc2ccccc2C(=O)O)n(Cc2cccnc2)n1` it was 180 to 183 °C.
In the case of `CCN(CC)CCNC(=O)c1cc(Cl)c(N)cc1OCCSC` it was 118 to 120 °C.
Take `Clc1ccc(-c2cc(Cl)c3cc(Cl)ccc3n2)cc1`: the melting point was 204 to 208 °C.
In the case of `O=C(O)c1cc(S(=O)(=O)Nc2ccc(Cl)cc2Cl)ccc1Cl` it was 174 °C; in that of `N#Cc1ccc2ccc(C(=O)O)cc2c1`, 279 to 283 °C; in that of `Cc1cccc(N2CCN(CCCc3ccc(C4CCC(=O)N4)cc3)CC2)c1` (stereo not given), 87 to 89 °C.
Compound `c1ccc2cc(-c3cc4nccnc4[nH]3)ncc2c1` had a melting point of 281 to 285 °C.
In the case of `O=S(=O)(Nc1cccc(CCOCc2csc(-c3ccc(OC(F)(F)F)cc3)n2)c1)C(F)(F)F` it was 115 to 116 °C.
With `CCOC(Cc1ccc(OCCN2CCSc3ccccc32)cc1)C(=O)O` (single isomer, unassigned; (-)), the melting point was 110 °C.
For `Fc1ccc(C(c2ccccc2)(c2ccccc2)n2ccnc2)cc1` the value was 146 °C; for `O=C(Nc1cc(C(F)(F)F)c[nH]c1=O)c1ccccc1`, 207 to 210 °C.
In the case of `CCN(CC)CCNc1nc2cccnc2n(-c2ccc(Cl)cc2)c1=O` it was 149 to 150 °C; in that of `O=C(O)C1=CCC2CC(=O)N12` (stereo not given), 172 to 174 °C; in that of `CCC(Oc1ccc(C(C)(C)CC)cc1C(C)(C)CC)C(=O)Nc1ccc(Cl)c(NC(=O)CC(=O)C(C)(C)Sc2ccccc2)c1` (stereo not given), 73 to 75 °C.
In turn, `COc1cc(F)c(-c2cncc(OC3SCC(OC(C)=O)C(OC(C)=O)C3OC(C)=O)c2)c(F)c1` (stereo not given) displayed a melting point of 62 °C.
For `COC(=O)c1ccc2c(c1)c(=O)cc(-c1ccccc1)n2C`, the melting point fell in the range of 174 to 176 °C.
In the case of `CCSCCOC(=O)C(Br)=Cc1cc(-n2c(=O)cc(C(F)(F)F)n(C)c2=O)ccc1Cl` it was 118 to 120 °C.
On to `NC(=O)C1CCc2c(C(=O)c3ccc(Cl)cc3)cccc21` (stereo not given), for which the melting point lay within 159 to 161 °C.
For `CCn1cc(-c2sc(NC(=O)c3ccncc3)nc2-c2ccco2)ccc1=O` the value was 285 to 289 °C; for `COc1ccc(S(=O)(=O)N2CCc3cccc(-c4cccnc4)c32)cc1`, 179 to 181 °C; for `CCOC(=O)c1cn(Cc2ccccc2)nc1N(Cc1ccccc1)C(=O)Nc1ccccc1`, 116 to 117 °C.
As for `CN1CCN(c2cccc(Nc3nc4c(-c5ccc(S(C)(=O)=O)cc5)cccn4n3)c2)C(=O)C1`, the melting point lay in the range of 234 to 236 °C.
The compound `O=[N+]([O-])c1cccc2c1OCCO2` came in with a melting point of 55 to 59 °C.
`Clc1ccc2c(c1)NCc1ccccc1S2`: the melting point was 125 to 127 °C.
For `CS(=O)c1ccc2nc(C(F)(F)F)nc(Cl)c2c1` (stereo not given) the value was 105 to 107 °C.
Compound `COc1c(Nc2ncc3ccc(-c4ccccc4N(C)S(C)(=O)=O)n3n2)cccc1C1CCN(C)CC1` gave a melting point of 92 to 101 °C.
Compound `COc1ccc(Nc2ccc(Nc3ncnc4cc(-c5ccc(OC)cc5)sc34)cc2)cc1` displayed a melting point of 159 to 169 °C.
In turn, `CCCOc1ccc(S(=O)(=O)N2CCN(CC)C(C(=O)OCC)C2)cc1-c1nc2cc3nc[nH]c3cc2c(=O)[nH]1` (stereo not given) displayed a melting point of 158 to 163 °C.
As to `COc1ccc(C(C)(c2ccc(OC)cc2)c2ccc(N(c3ccc(C)cc3)c3ccc(C)cc3)cc2)cc1`, the melting point was 147 to 148 °C.
For `Nc1ccccc1-c1cccc(C(=O)O)c1` the value was 170 °C.
Turning to `CC(=O)CCC1(C(N)=O)c2ccccc2-c2ccccc21`, the melting point lay in the range of 125 to 128 °C.
For `COCc1c(C(=O)OC(C)C)ncc2[nH]c3ccc(I)cc3c12` the value was 233 to 235 °C; for `CN(C)c1nnc(-c2nnc(SCCC(F)=C(F)F)o2)o1`, 87 to 90 °C.
In turn, `Cc1ccc(-c2[nH]c(-c3ccc(C(F)(F)F)cc3)nc2C(=O)Nc2nccs2)s1` showed a melting point of 235 to 237 °C.
In the case of `N#Cc1ccc2c(c1)C(=O)c1ccccc1CN2` it was 235 to 236 °C; in that of `CC12CCC(=O)C=C1CCC(=Cc1ccccc1)C2=O` (stereo not given), 88 °C.
In the case of `COc1cc(-c2nc(-n3nccn3)c3c(C)c(C#N)sc3n2)cc(OC)c1OC` it was 208 to 210 °C; in that of `COC(=O)c1cccc(C)c1S(=O)(=O)Cl`, 114 to 116 °C; in that of `Cn1ncnc1COc1nc2c(-c3ccccc3)nncn2c1-c1ccccc1`, 179 °C.
In the case of `COc1ccc(C(=O)Cl)cc1OC(=O)c1ccccc1` it was 120 to 122 °C; in that of `Cc1ccccc1C(=O)Nc1ccc(C(=O)N2Cc3cc(Cl)ccc3Oc3ccccc32)cc1`, 207 to 208 °C.
Consider `CC1(C)C=C(c2cc(C#N)ccc2O)c2cc(C#N)ccc2O1`, for which the melting point is 213 to 215 °C.
In the case of `CCOCN(C(=O)CCl)c1c(C)cccc1[N+](=O)[O-]` it was 96 to 98 °C.
For `NC(=O)c1c(Cl)c(-c2cncs2)n2c1CCCC2` the value was 227 °C; for `CC(=O)Nc1cccc(C(C)(C)O)c1CO`, 138 °C; for `CCC1(CC)c2cc(-c3nc4ccccc4s3)ccc2-c2ccc(N(c3ccc(O)cc3)c3ccc(O)cc3)cc21`, 294 to 297 °C.
For the compound `Oc1ccc(-c2cc3ccccc3nc2Cl)cc1`, the melting point was in the range of 164 to 166 °C.
`CC(C)=CCOc1ccc2cc(C(C)C(=O)O)ccc2c1` (stereo not given): the melting point was 97 to 100 °C.
In the case of `O=C(O)c1c(Cc2ccccc2)nc2c(C(F)(F)F)cccc2c1O` it was 252 °C; in that of `Cc1cc(C#N)cc(C(=O)Nc2ccc(F)c(Cl)c2)n1`, 204 °C; in that of `COC(=O)Nc1cc(C(C)(C)C)[nH]n1`, 177 °C.
For `CS(=O)(=O)Nc1ccccc1C(=O)Nc1ccc(OCCN2CCCC2)cc1`, the melting point is 221 to 222 °C.
In the case of `COc1ccccc1N1CCN(CCCCN2CSCC2=O)CC1` it was 80 to 81 °C.
In the case of `O=C1CCC(N2Cc3cc(CNC(=O)c4ccc(Cl)cc4)ccc3C2=O)C(=O)N1` (stereo not given) it was 278 to 280 °C.
In the case of `Cc1cc(C=O)ccc1C(=O)NCC(F)(F)F` it was 99 to 104 °C.
For `O=C(CBr)c1ccc(-c2ccc([N+](=O)[O-])cc2)o1`, the melting point lay within 153 to 162 °C.
